According to PubChem BioAssay AID1963449 (Molecular Pharmacology Branch, DTP, NCI, 2024):

Test system: 596521-263-R-J1-PDC complex spheroid growth
Test: Anticancer human tumor 596521-263-R-J1-PDC patient-derived soft tissue sarcoma cell line growth inhibition [Asc]
Conditions: for IC50: curve of first compound; for viability, T/C: stronger effect = lower value
Procedure, shortened: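 Tumor cells were grown as complex spheroids with human endothelial cells (HUVEC) and human mesenchymal stem cells as stroma. Agents were tested alone and in combination, in half-log steps down from the clinical Cmax, or from 10 microM where Cmax was unknown.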

[1] = second compound 0.0316 µM, first compound 0.0316 µM
[2] = second compound 0.0316 µM, first compound 0.1 µM
[3] = second compound 0.0316 µM, first compound 0.316 µM
[4] = second compound 0.0316 µM, first compound 1 µM
[5] = second compound 0.1 µM, first compound 0.0316 µM
[6] = second compound 0.1 µM, first compound 0.1 µM
[7] = second compound 0.1 µM, first compound 0.316 µM
[8] = second compound 0.1 µM, first compound 1 µM
[9] = second compound 0.316 µM, first compound 0.0316 µM
[10] = second compound 0.316 µM, first compound 0.1 µM
[11] = second compound 0.316 µM, first compound 0.316 µM
[12] = second compound 0.316 µM, first compound 1 µM
[13] = second compound 1 µM, first compound 0.0316 µM
[14] = second compound 1 µM, first compound 0.1 µM
[15] = second compound 1 µM, first compound 0.316 µM
[16] = second compound 1 µM, first compound 1 µM
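Note: spheroids exposed to compounds for 7 days.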

SMILES: O=C(c1ccc(F)c(F)c1Nc1ccc(I)cc1F)N1CC(O)([C@@H]2CCCCN2)C1 + CNC(C)C(=O)NC1CN(S(=O)(=O)c2cccc(S(=O)(=O)N3CCC4CCC(C(=O)NC(c5ccccc5)c5ccccc5)N4C(=O)C(NC(=O)C(C)NC)C3)c2)CCC2CCC(C(=O)NC(c3ccccc3)c3ccccc3)N2C1=O
- IC50 (second compound 0.00316 µM): 0.179 µM
- IC50 (second compound 0.01 µM): 0.248 µM
- IC50 (second compound 0.0316 µM): 0.211 µM
- IC50 (second compound 0.1 µM): 0.187 µM
- IC50 (second compound 0.316 µM): 0.186 µM
- IC50 (second compound 1 µM): 0.149 µM
- viability, T/C (second compound 0.00316 µM, first compound 0.00316 µM): 94%
- viability, T/C (second compound 0.00316 µM, first compound 0.01 µM): 89.4%
- viability, T/C (second compound 0.00316 µM, first compound 0.0316 µM): 90.5%
- viability, T/C (second compound 0.00316 µM, first compound 0.1 µM): 63.4%
- viability, T/C (second compound 0.00316 µM, first compound 0.316 µM): 37.2%
- viability, T/C (second compound 0.00316 µM, first compound 1 µM): 27.1%
- viability, T/C (second compound 0.01 µM, first compound 0.00316 µM): 88.4%
- viability, T/C (second compound 0.01 µM, first compound 0.01 µM): 75.8%
- viability, T/C (second compound 0.01 µM, first compound 0.0316 µM): 93.3%
- viability, T/C (second compound 0.01 µM, first compound 0.1 µM): 69.6%
- viability, T/C (second compound 0.01 µM, first compound 0.316 µM): 45.2%
- viability, T/C (second compound 0.01 µM, first compound 1 µM): 27.8%
- viability, T/C (second compound 0.0316 µM, first compound 0.00316 µM): 96.6%
- viability, T/C (second compound 0.0316 µM, first compound 0.01 µM): 87%
- viability, T/C [1]: 84.9%
- viability, T/C [2]: 61%
- viability, T/C [3]: 43.9%
- viability, T/C [4]: 27.3%
- viability, T/C (second compound 0.1 µM, first compound 0.00316 µM): 76.5%
- viability, T/C (second compound 0.1 µM, first compound 0.01 µM): 73.3%
- viability, T/C [5]: 73%
- viability, T/C [6]: 65%
- viability, T/C [7]: 37.5%
- viability, T/C [8]: 22.8%
- viability, T/C (second compound 0.316 µM, first compound 0.00316 µM): 78.9%
- viability, T/C (second compound 0.316 µM, first compound 0.01 µM): 91.6%
- viability, T/C [9]: 77.4%
- viability, T/C [10]: 65.9%
- viability, T/C [11]: 36.8%
- viability, T/C [12]: 23.8%
- viability, T/C (second compound 1 µM, first compound 0.00316 µM): 65.9%
- viability, T/C (second compound 1 µM, first compound 0.01 µM): 68.8%
- viability, T/C [13]: 74.2%
- viability, T/C [14]: 53.2%
- viability, T/C [15]: 37.9%
- viability, T/C [16]: 18.3%

SMILES: C=C(F)C(=O)N1CCN(c2nc(OCC3CCCN3C)nc3c2CCN(c2cccc4cccc(Cl)c24)C3)CC1CC#N (centres undefined) + Cc1c(S(C)(=O)=O)c(-c2cc(F)cc(N3CCN(c4ccc(NS(=O)(=O)c5ccc(NC(CCN6CCC(C(=O)OCCCP(=O)(O)O)CC6)CSc6ccccc6)c(S(=O)(=O)C(F)(F)F)c5)cc4)CC3)c2)c(-c2ccc(Cl)cc2)n1C(C)C
- IC50 (second compound 0.0316 µM): 4.96 µM
- IC50 (second compound 0.1 µM): 4.52 µM
- IC50 (second compound 0.316 µM): 4.25 µM
- IC50 (second compound 1 µM): 2.76 µM
- IC50 (second compound 3.16 µM): 0.66 µM
- IC50 (second compound 10 µM): 0.326 µM
- viability, T/C [1]: 110%
- viability, T/C [2]: 98.3%
- viability, T/C [3]: 87.6%
- viability, T/C [4]: 101%
- viability, T/C (second compound 0.0316 µM, first compound 3.16 µM): 81.9%
- viability, T/C (second compound 0.0316 µM, first compound 10 µM): 0.22%
- viability, T/C [5]: 98.4%
- viability, T/C [6]: 97.9%
- viability, T/C [7]: 93.9%
- viability, T/C [8]: 91.1%
- viability, T/C (second compound 0.1 µM, first compound 3.16 µM): 72.8%
- viability, T/C (second compound 0.1 µM, first compound 10 µM): 0.18%
- viability, T/C [9]: 104%
- viability, T/C [10]: 98%
- viability, T/C [11]: 92.4%
- viability, T/C [12]: 89.6%
- viability, T/C (second compound 0.316 µM, first compound 3.16 µM): 68.2%
- viability, T/C (second compound 0.316 µM, first compound 10 µM): 0.17%
- viability, T/C [13]: 84.3%
- viability, T/C [14]: 87%
- viability, T/C [15]: 76.7%
- viability, T/C [16]: 80%
- viability, T/C (second compound 1 µM, first compound 3.16 µM): 46%
- viability, T/C (second compound 1 µM, first compound 10 µM): 1.18%
- viability, T/C (second compound 3.16 µM, first compound 0.0316 µM): 79.5%
- viability, T/C (second compound 3.16 µM, first compound 0.1 µM): 67.4%
- viability, T/C (second compound 3.16 µM, first compound 0.316 µM): 52.4%
- viability, T/C (second compound 3.16 µM, first compound 1 µM): 50.5%
- viability, T/C (second compound 3.16 µM, first compound 3.16 µM): 26.9%
- viability, T/C (second compound 3.16 µM, first compound 10 µM): 0.2%
- viability, T/C (second compound 10 µM, first compound 0.0316 µM): 58.4%
- viability, T/C (second compound 10 µM, first compound 0.1 µM): 50.1%
- viability, T/C (second compound 10 µM, first compound 0.316 µM): 48.3%
- viability, T/C (second compound 10 µM, first compound 1 µM): 44.2%
- viability, T/C (second compound 10 µM, first compound 3.16 µM): 22%
- viability, T/C (second compound 10 µM, first compound 10 µM): 1.02%
